Tested on: Canis familiaris
Assay: The compound was tested for its antihypertensive activity in dogs after intravenous injection
Assay type: functional, Canis lupus familiaris

| SMILES | Relative activity |
| --- | --- |
| CCC(C)(C)/N=C(\NC#N)Nc1cc(Cl)cc(C#N)c1 | 2.04 |
| CC(N/C(=N\C#N)Nc1ccncc1)C(C)(C)C (centres undefined) [PINACIDIL ANHYDROUS] | 1 |
| CCC(C)(C)N/C(=C\C#N)Nc1cc(Cl)cc(C#N)c1 | <0.3 |
| CC(N/C(=C\[N+](=O)[O-])Nc1ccccc1)C(C)(C)C (centres undefined) | 1.82 |

From ChEMBL document CHEMBL1132801, “NMR analysis of tautomerisms of active pinacidil-type potassium channel openers and a less active one” (2000)
